Reference: patent US6596497B1, “Screening of antiviral compounds targeted to the HIV-1 gp41 core structure” (New York Blood Center, Inc., priority 1999, dated 2003)
Converted amounts (≈) assume the structure as drawn. Where two headings read alike, the source gives them in different places.

Columns and labels:
[1] = molecular target: T1, N-36/C-34 complex (HIV-1 gp41 core) (Human immunodeficiency virus type 1 group M subtype B, UniProt P04578); assay: biochemical; assay type: binding; conditions: for Inhibitory activity on complex formation by N-36 and C-34 (in words): no concentration stated; for Inhibition of NC-1 detectable complex formation by N-36 and C-34 (in words): compounds at 10 μg/ml, FIG. 13
T1 construct: Peptides derived from the NHR and CHR regions of gp41, designated N- and C-peptides; made in house; host or cells: chemical synthesis (solid-phase FMOC)
Description: For detection of peptide complexes, a direct and a sandwich ELISA were used. In the direct ELISA, the N- and C-peptides were mixed at equimolar concentration in PBS and diluted in coating buffer. Then, the peptide complexes were directly coated onto the wells of microplate. In the sandwich ELISA, the plate was coated with IgG (10 μg/ml) purified from rabbit antisera directed against N36(L6)C34, followed by the addition of the peptide complexes formed by mixing N- and C-peptides in PBS in equimolar concentrations. To screen for antiviral agents, compounds were pre-incubated with N-peptides at 37° C. for 30 minutes before mixing with the C-peptides. The binding of the peptide complexes to the antibodies was then detected as described above.
The percentage of inhibition by the compounds of the binding of NC-1 to the peptide complexes was calculated as described in Jiang, S., K. Lin, and A. R. Neurath, 1991, “Enhancement of human immunodeficiency virus type-1 (HIV-1) infection by antisera to peptides from the envelope glycoproteins gp120/gp41”, J. Exp. Med., 174, 1557-1563.
A sandwich ELISA was established to screen for compounds that interfere with the formation of the N-36/C-34 complex. N-36 (2 μM) was preincubated with compounds at graded concentrations at 37° C. for 30 minutes, followed by the addition of C-34 (2 μM). After incubation at 37° C. for 30 minutes, the mixture was added to wells of a 96-well polystyrene plate (Immulon I, Dynatech Laboratories, Inc., Chantilly, Va.) which were precoated with IgG (10 μg/ml) purified from rabbit antisera directed against N36(L6)C34. […] Absorbance at 450 nm (A450) was read using an ELISA reader (Dynatech Laboratories, Inc., Chantilly, Va.). The percentage of inhibition by the compounds of the binding of NC-1 to the peptide complexes was calculated as described in Jiang S., K. Lin, and A. R. Neurath, 1991, “Enhancement of human immunodeficiency virus type-1 (HIV-1) infection by antisera to peptides from the envelope glycoproteins gp120/gp41”, J. Exp. Med., 174, 1557-1563. The concentration for 50% inhibition (IC50) was calculated using a computer program, designated Calcusyn (Chou, T.-C., 1991, “The median-effect principle and the combination index for quantitation of synergism and antagonism. In Synergism and Antagonism in Chemotherapy”, T.-C. Chou and D. C. Rideout, editors, Academic Press, San Diego, 61-102).

[2] = In vitro cytotoxicity, XTT; assay type: cell-based; conditions: human
Description: The in vitro cytotoxicity for MT-2 cells of the compounds was determined in 96-well plates using the XTT dye to measure cell viability in the absence of virus. Ten μl of 5% TRITON X-100 were added to the wells corresponding to positive controls (“P”) and 10 μl medium was added to wells corresponding to negative controls (“N”). The percent cytotoxicity was calculated using the following formula: % cytotoxicity=[(E−N)/(P−N)]×100%, wherein “E” represents experimental data in the presence of compounds. The concentration corresponding to 50% cytotoxicity (CC50) for MT-2 cells was calculated using the Calcusyn computer program. The selectivity index (S.I.=CC50/IC50) for each compound was calculated.

[3] = test system: H9/HIV-1IIIB cells and MT-2 cells; assay: cells; assay type: cell-based; conditions: for IC50: Human immunodeficiency virus 1, MT2, 2 h, read-out: IC50 ± SD Cell fusion; for Inhibitory activity on HIV-1-mediated cell fusion (in words): no concentration stated; for Inhibition of HIV-1-mediated cell fusion (in words): compounds at 10 μg/ml, FIG. 13
Description: A dye transfer assay was used for detection of HIV-1-mediated cell fusion as described in Jiang et al., Nature, 365, 113 (1993). H9/HIV-1IIIB cells were labeled with a fluorescent reagent, 2′,7′-bis-(2-carboxyethyl)-5-and-6-carboxyfluorescein acetoxyethyl ester (BCECF-AM), (Molecular Probes, Inc., Eugene, Oreg.) and incubated with MT-2 cells (ratio=1:10) in a 96-well plate at 37° C. for 2 hours in the presence or absence of peptides or compounds tested. The fused and unfused BCECF-labeled HIV-1 infected cells were counted under an inverted fluorescence microscope (Zeiss, Germany) with an eyepiece micrometer discs. The percentage of inhibition of cell fusion was calculated as described in Jiang et al., 1993, Nature, 365, 113.
A dye transfer assay was used for detection of HIV-1 mediated cell fusion as described in Jiang, S., K. Lin, N. Strick, and A. R. Neurath, 1993, Inhibition of HIV-1 infection by a fusion domain binding peptide from HIV-1 envelope glycoprotein gp41, Biochem. Biophys. Res. Commun., 195, 533-538.
H9/HIV-1IIIB cells were labeled with a fluorescent reagent, 2′,7′-bis-(2-carboxyethyl)-5-and-6-carboxyfluorescein acetoxyethyl ester (BCECF-AM) (Molecular Probes, Inc., Eugene, Oreg.) and then incubated with MT-2 cells (ratio=1:10) in 96-well plates at 37° C. for 2 hours in the presence or absence of the compounds tested. The fused and unfused BCECF-labeled HIV-1 infected cells were counted under an inverted fluorescence microscope (Zeiss, Germany) with an eyepiece micrometer disc. The percentage of inhibition of cell fusion and the IC50 values were calculated as described in Jiang et al., (1993), Biochem. Biophys. Res. Commun., 195, 533-538.

[4] = test system: HIV-1IIIB; assay: HIV-1-mediated cytopathic effect (CPE), XTT; assay type: cell-based; conditions: for selectivity ratio at 6 days: human, read-out: Selective Index (S.I.) = CC50/IC50 for CPE
Description: The inhibitory activity of the compounds was determined by a calorimetric method based on protection of cells against HIV-1-mediated CPE, as described in Jiang et al., (1991), J. Exp. Med., 174, 1557-1563. 1×10^4 MT-2 cells in 96-well plates were infected with diluted HIV-1IIIB in 200 μl RPMI 1640 medium containing 10% FBS in the presence of compounds at graded concentrations. After 1 hour, 24 hours and 4 days, half of the culture media were changed. On the sixth day post infection, an indicator, XTT tetrazolium dye (1 mg/ml; 50 μl/well; PolySciences, Inc., Warrington, Pa.), was added to the cells. After 4 hours, the soluble intracellular formazan was determined calorimetrically at 450 nm. The percent of inhibition of CPE and the IC50 values were calculated as described above.

[5] = 50% cytotoxic concentration, MT-2 cells, no virus, read-out: CC50 ± SD
[6] = Human immunodeficiency virus 1, MT2, read-out: IC50 ± SD CPE
[7] = Human immunodeficiency virus 1, MT2, MT-2 cells, sixth day post infection, read-out: IC50 ± SD CPE

T1 sequence (P04578 546-581, one chain of several): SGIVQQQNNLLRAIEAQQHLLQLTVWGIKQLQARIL

## Cc1ccc(N=Nc2c(S(=O)(=O)O)cc3cc(S(=O)(=O)O)cc(Nc4nc(Cl)nc(Nc5ccccc5)n4)c3c2O)c(S(=O)(=O)O)c1 [ADS-J2, 5-[(4-chloro-6-phenylamino-1,3,5-triazine-2-yl)-amino]-4-hydroxy-3-[(4-methyl-6-sulfophenyl)azo]-2,7-naphthalene disulfonic acid]
[1]
  IC50: 4.4 µM
  Inhibitory activity on complex formation by N-36 and C-34 (in words): promising inhibitory activity
[2]; [5]
  CC50: 290 ± 12.4 µg/mL (≈ 402 µM)
[3]
  IC50: 21.9 ± 1.38 µg/mL (≈ 30.3 µM)
  Inhibitory activity on HIV-1-mediated cell fusion (in words): promising inhibitory activity
[4]; [6]
  IC50: 30.8 ± 6.74 µg/mL (≈ 42.6 µM)
[4]; MT-2 cells
  selectivity ratio at 6 days: 9.43
[4]; no concentration stated
  Inhibitory activity on HIV-1-mediated CPE (in words): promising inhibitory activity

## C=CC1C[N@@]2CCC1C[C@@H]2C(OC(=O)c1ccc(OC)cc1)c1ccnc2ccccc12 (stereo partly shown) [ADS-J4]
[1]
  IC50: > 233 µM
[2]
  CC50: 74.1 ± 0.76 µg/mL (≈ 173 µM)
[3]
  IC50: > 100 µg/mL
[4]; [7]
  IC50: > 100 µg/mL
[4]; MT-2 cells
  selectivity ratio at 6 days: ≤ 1

## CC(c1nc2ccc(Cl)cc2c(=O)n1Cc1ccccc1)N(C(=O)c1ccc([N+](=O)[O-])cc1)c1ccc(F)cc1 (stereo not shown) [ADS-J5]
[1]
  IC50: > 180 µM
[2]; [5]
  CC50: 30.2 ± 4.84 µg/mL (≈ 54.2 µM)
[3]
  IC50: > 100 µg/mL
[4]; [6]
  IC50: > 100 µg/mL
[4]; MT-2 cells
  selectivity ratio at 6 days: ≤ 1

## C/C(=N/OC(=O)NS(=O)(=O)c1ccc(C)cc1)c1cc2ccccc2oc1=O [ADS-J6]
[1]
  IC50: > 250 µM
[2]; [5]
  CC50: 286 ± 19.3 µg/mL (≈ 714 µM)
[3]
  IC50: > 100 µg/mL
[4]; [6]
  IC50: > 100 µg/mL
[4]; MT-2 cells
  selectivity ratio at 6 days: ≤ 1

## CCC1C[N@@]2CCC1C[C@@H]2C(OC(=O)c1ccccc1Cl)c1ccnc2ccc(OC)cc12 (stereo partly shown) [ADS-J7]
[1]
  IC50: > 215 µM
[2]
  CC50: 41.3 ± 2.38 µg/mL (≈ 88.9 µM)
[3]
  IC50: 59.8 ± 8.69 µg/mL (≈ 129 µM)
[4]; [7]
  IC50: > 100 µg/mL
[4]; MT-2 cells
  selectivity ratio at 6 days: ≤ 1

## O=C(Nc1cc([N+](=O)[O-])ccc1-c1ccc([N+](=O)[O-])cc1)c1ccc([N+](=O)[O-])cc1Cl [ADS-J9]
[1]
  IC50: > 226 µM
[2]; [5]
  CC50: 47.2 ± 5.48 µg/mL (≈ 107 µM)
[3]
  IC50: > 100 µg/mL
[4]; [6]
  IC50: > 100 µg/mL
[4]; MT-2 cells
  selectivity ratio at 6 days: ≤ 1

## O=C(Nc1ccc(Cl)c(Cl)c1)O/N=C(/c1ccccc1)c1ccc(-c2ccccc2)cc1 [ADS-J10]
[1]
  IC50: > 217 µM
[2]; [5]
  CC50: 74.7 ± 6.04 µg/mL (≈ 162 µM)
[3]
  IC50: > 100 µg/mL
[4]; [6]
  IC50: > 100 µg/mL
[4]; MT-2 cells
  selectivity ratio at 6 days: ≤ 1

## Cc1ccc(N(C(=O)Nc2ccccc2)C(C)c2nc3ccccc3c(=O)[nH]2)c(C)c1 (stereo not shown) [ADS-J11]
[1]
  IC50: > 242 µM
[2]; [5]
  CC50: 40.8 ± 1.67 µg/mL (≈ 98.8 µM)
[3]
  IC50: > 100 µg/mL
[4]; [6]
  IC50: > 100 µg/mL
[4]; MT-2 cells
  selectivity ratio at 6 days: ≤ 1

## Cc1ccc(N(C(=O)Nc2cccc(Cl)c2)C(C)c2nc3ccccc3c(=O)[nH]2)c(C)c1 (stereo not shown) [ADS-J12]
[1]
  IC50: > 224 µM
[2]; [5]
  CC50: 54 ± 8.14 µg/mL (≈ 121 µM)
[3]
  IC50: > 100 µg/mL
[4]; [6]
  IC50: > 100 µg/mL
[4]; MT-2 cells
  selectivity ratio at 6 days: ≤ 1

## Cc1ccc(N(C(=O)Nc2ccc(Cl)c(Cl)c2)C(C)c2nc3ccccc3c(=O)[nH]2)c(C)c1 (stereo not shown) [ADS-J13, N′-(3,4-dichlorophenyl)-N-[1-(4-oxo-3,4-dihydroquinazolin-2-yl)ethyl]-N-2,4-dimethyl phenylurea]
[1]
  IC50: > 208 µM
[2]; [5]
  CC50: 39.2 ± 7.6 µg/mL (≈ 81.5 µM)
[3]
  IC50: > 100 µg/mL
  Inhibitory activity on HIV-1-mediated cell fusion (in words): does not inhibit
[4]; [6]
  IC50: > 100 µg/mL
[4]; MT-2 cells
  selectivity ratio at 6 days: ≤ 1

## O=C(O)c1ccc(-c2c3nc(c(-c4ccc(C(=O)O)cc4)c4ccc([nH]4)c(-c4ccc(C(=O)O)cc4)c4nc(c(-c5ccc(C(=O)O)cc5)c5ccc2[nH]5)C=C4)C=C3)cc1 [MTCPP, meso-tetra(4-carboxyphenyl)porphyrin, reference compound]
[1]
  Inhibition of NC-1 detectable complex formation by N-36 and C-34 (in words): partially inhibited
  Inhibitory activity on complex formation by N-36 and C-34 (in words): some inhibitory activity
[3]
  Inhibition of HIV-1-mediated cell fusion (in words): partially inhibited

## O=S(=O)(O)c1ccc(-c2c3nc(c(-c4ccc(S(=O)(=O)O)cc4)c4ccc([nH]4)c(-c4ccc(S(=O)(=O)O)cc4)c4nc(c(-c5ccc(S(=O)(=O)O)cc5)c5ccc2[nH]5)C=C4)C=C3)cc1 [MTSPP, meso-tetra(4-sulphonatophenyl)porphyrin, reference compound]
[1]
  Inhibition of NC-1 detectable complex formation by N-36 and C-34 (in words): partially inhibited
  Inhibitory activity on complex formation by N-36 and C-34 (in words): some inhibitory activity
[3]
  Inhibition of HIV-1-mediated cell fusion (in words): partially inhibited

## C=Cc1c(C)c2cc3nc(c(CC(=O)O)c4[nH]c(cc5nc(cc1[nH]2)C(C)=C5CC)c(C)c4C(=O)O)[C@@H](CCC(=O)O)[C@@H]3C [chlorin e6, reference compound]
[1]
  Inhibition of NC-1 detectable complex formation by N-36 and C-34 (in words): partially inhibited
  Inhibitory activity on complex formation by N-36 and C-34 (in words): some inhibitory activity
[3]
  Inhibition of HIV-1-mediated cell fusion (in words): partially inhibited

## [Tyr5,12, Lys7]-polyphemusin II [Compound T-22, reference compound]
[1]
  Inhibitory activity on complex formation by N-36 and C-34 (in words): do not inhibit the complex formation
